Measured values reported in patent EP3431088A1, “MNTBAP FOR USE IN INDUCING A TRANSIENT IMMUNE TOLERANCE” (priority 2017, dated 2019).

Legend:
[1] = test system: splenic T-lymphocyte subsets; assay: Absolute numbers of splenic T-lymphocyte subsets by flow cytometry; assay type: in vivo, mice; conditions: 15 days post first injection, after gene transfer, vs PBS
Procedure: (§1) MnTBAP (Calbiochem, San Diego, USA or Enzo Life Sciences, Farmingdale, USA) is dissolved in 75 mM NaOH to constitute a 20 mM stock solution. MnTBAP is dissolved in the complete medium, used for in vitro treatment, containing RPMI-1640 supplemented with 10% heat-inactivated fetal calf serum, 100 U/ml penicillin/streptomycin, 2 mM glutamax and 50 µM β-mercaptoethanol β-ME). Hypertonic medium, used to block clathrin dependent endocytosis, is complete medium supplemented with 0.45 M sucrose. For in vivo treatment, the stock solution is diluted with PBS and administered at 80 mg/kg intraperitoneally daily during five days. Control animals are injected with equivalent volume of PBS.
Intramuscular (IM) injection: Two hours post first intraperitoneal (IP) injection of MnTBAP, mice are anesthetized by IP injection of xylazine (10 mg/kg) and ketamine (100 mg/kg) and 25 µl of a rAAV2/1 CMV SGCA HY viral preparation containing 2.5.10^9 vg is injected in the left tibialis anterior muscle (TA). Controls are injected with PBS. Mice are sacrificed 15 days after vector injection and the injected muscles are harvested to perform histologic analysis. Spleens are harvested to analyze transgene-specific T cell response.
After mechanic disruption of the spleen, erythrocytes are eliminated by hypotonic shock with ammonium chloride potassium (ACK) lysing buffer. […]

CD4 = CD4 cell surface expression by flow cytometry; assay type: cell-based, murine
Procedure: as §1
After mechanic disruption of the spleen, erythrocytes are eliminated by hypotonic shock with ammonium chloride potassium (ACK) lysing buffer. Then CD4^+ T cells are isolated from spleen cell suspension by negative selection using a CD4^+ T cell isolation kit (Miltenyi Biotec, Paris, France) followed by auto-MACS (Miltenyi Biotec) magnetic sorting, according to the manufacturer's instructions. Purity of isolated CD4^+ T cells is usually > 95%. Cell suspensions are first incubated with anti-FcγRIII/II (Fc Block, 2.4G2, BD Biosciences, Le Pont de Claix, France) monoclonal antibodies (mAb) for 10 minutes at 4°C and then stained for 30 minutes at 4°C in PBS, 0.1% bovine serum albumin (BSA) with Fc Block present, using saturating amounts of rat anti-mouse CD4-Pacific Blue (RM4-5, BD Biosciences) mAb. Gates for CD4^+ populations are set according to isotype controls. Cell viability is determined by staining with 7-aminoactinomycin D (7-AAD; Sigma-Aldrich, St-Quentin-Fallavier, France) or Fixable Viability Dye eFluor 780 (eBiosciences, Paris, France). When indicated, samples are fixed with 1% paraformaldehyde. Samples are acquired on an LSR II flow cytometer (BD Biosciences) and data were analyzed with DIVA software (BD Biosciences).

clathrin and CD4 = assay: Immunofluorescence confocal microscopy, anti-CD4 and anti-clathrin; assay type: cell-based; conditions: murine splenic enriched CD4+ T cells, 2 hours, 400 µM, vs non-treated
Procedure: After culture in complete medium with or without MnTBAP at 400 µM, murine splenic CD4^+ T cells are collected and subjected to immunostaining as previously described (T. M. Neildez-Nguyen et al., Immunology 144, 431. 2015). Briefly, after adhesion on poly-L-lysine-coated slides (Thermo Fisher Scientific), cells are fixed in 4% paraformaldehyde for 5 minutes at 4°C and for 10 minutes at room temperature, and permeabilized with methanol for 6 minutes at -20°C. Cells are stained overnight with rat anti-mouse CD4-APC (BD Biosciences) and rabbit anti-mouse clathrin (Abcam, Paris, France) antibodies, and then with the goat anti-rabbit Alexa Fluor 488 secondary antibody (Invitrogen, Carlsbad, USA) for 30 minutes at room temperature. Negative controls are performed with the corresponding isotype controls of primary antibodies used (BD Biosciences and Abcam). The slides are mounted with Fluoromount/Dapi (SouthernBiotech, Montrouge, France). Images are acquired with confocal-laser-scanning microscope (Leica Microsystems, Nanterre, France).

Compound: O=C(O)c1ccc(-c2c3nc(c(-c4ccc(C(=O)O)cc4)c4ccc([n-]4)c(-c4ccc(C(=O)O)cc4)c4nc(c(-c5ccc(C(=O)O)cc5)c5ccc2[n-]5)C=C4)C=C3)cc1.[Mn+3] [MnTBAP, manganese [III] tetrakis (4-benzoic acid) porphyrin]
- absolute number of splenic CD4^+ T cells [1]: significant decrease in the absolute number
- absolute number of splenic CD8^+ T cells [1]: significant decrease in the absolute number
- CD4 expression (CD4 GMFI) (CD4; 2 hours after washing out MnTBAP ("2 h removed")): the decrease of CD4 expression is less important
- CD4 expression (CD4 GMFI) (CD4; fixed cells, 400 µM, 2 hours ("treated") vs "none"): decrease of CD4 expression
- CD4 expression (CD4; hypertonic conditions (RPMI + 0.45 M sucrose), 400 µM, 2 hours, treated vs non-treated): no significant difference of CD4 expression
- percentage of CD4 expression (CD4; normal tonicity (RPMI), 400 µM, 2 hours, vs non-treated): decreased
- CD4 expression (CD4 GMFI) (CD4; overnight after removing MnTBAP ("O/N removed")): further less accentuated
- CD4 at the cell surface of CD4 expressing cells (CD4; splenic enriched CD4+ T cells, 400 µM, 2 hours, vs control): disappearance of CD4 at the cell surface
- CD4 expression (CD4; viable murine splenic enriched CD4+ T cells, 2 hours, 400 µM): maximal decrease of CD4 expression
- CD4 expression (CD4; viable murine splenic enriched CD4+ T cells, 2 hours, increasing doses 0, 100, 200, 400 µM): progressive decrease of CD4 expression
- colocalization of clathrin and CD4 (clathrin and CD4): colocalization of clathrin and CD4 is observed
